Consider five compounds from patent publication US8785446B2, “Treating post-seizure patients” (priority 2009, dated 2014).

In data set [1] the test system is GluR1 S831 and GluR1 S845. Description: AMPAR GluR1 subunit phosphorylation in hippocampus after post-seizure AMPAR antagonist treatment in vivo. As to conditions: for GluR1 S845 phosphorylation: 12 hours after hypoxia-induced seizures; for GluR1 S845 phosphorylation / GluR1 S831 phosphorylation: single systemic dose within 30 minutes after seizures, vs vehicle; for GluR1 S831 phosphorylation: 12 hours after hypoxic seizures; for GluR1 subunit phosphorylation: post-treatment during the early period after seizure induction. The arrangement: species or system rat. The source says:
The strength of synaptic transmission in intact neuronal networks, such as in LTP, can be regulated by altered AMPAR function mediated by phosphorylation of GluR1 S831 and GluR1 S845 (Barria et al., 1997; Lee et al., 2000; Lee et al., 2003).
(§1) To determine whether seizure-induced activation of AMPAR plays a critical role in the alterations in EPSCs and subunits reported here, we examined whether pharmacologic inhibition of AMPARs in vivo following hypoxic seizures leads to a decrease in the activity of Ca^2+ dependent protein kinases and GluR1 subunit phosphorylation state. […] Within 30 minutes after hypoxic seizures, rats were treated with a single dose of systemically administered AMPAR antagonists NBQX (20 mg/kg), topiramate (30 mg/kg) or GYKI-53773 (7.5 mg/kg), and compared to vehicle-treated (0.1 ml PBS) hypoxic controls and normoxic littermates.

The test system of data set [2] is CaMKII. Briefly: CaMKII activity (ELISA) after hypoxic seizures and in vivo AMPAR antagonist treatment. As to conditions: 1 hour following hypoxic seizures; in vivo administration vs vehicle. As to the method:
(§2) Protein kinase A (PKA) […] mediates the phosphorylation of GluR1 S845 and protein kinase C (PKC) is involved in the phosphorylation of both GluR1 S831 (Kameyama et al., 1998; Mammen et al., 1997) and GluR2 S880 (Seidenman et al., 2003). […] Similarly, CaMKII activity increased at 1 hour post-seizures before returning to baseline levels at 6 hours post-hypoxia. […] The rapid seizure-induced activation of these protein kinases are occurring coincident with the alterations in phosphorylation state of their known substrates, GluR1 S831, GluR1 S845, and GluR2 S880.
as §1, with “littermates. These treatment doses are the same as the treatment paradigm in which we previously observed an attenuation of long-term epileptogenic changes (Koh et al., 2004). […] Importantly, blockade of AMPAR-mediated neurotransmission is the common mechanistic feature of these three structurally unrelated compounds and may represent the potential mode of mediating alterations.” for “littermates.”
Background: An ELISA detects its analyte on a solid surface through an enzyme-linked reagent.

Data set [3] relates to PKA. Briefly: PKA activity (ELISA) after hypoxic seizures and in vivo AMPAR antagonist treatment. As to conditions: 1 hour following hypoxic seizures; vs vehicle. The arrangement: species or system rat. As to the method: as §2
as §1, with “littermates. These treatment doses are the same as the treatment paradigm in which we previously observed an attenuation of long-term epileptogenic changes (Koh et al., 2004). […] Importantly, blockade of AMPAR-mediated neurotransmission is the common mechanistic feature of these three structurally unrelated compounds and may represent the potential mode of mediating alterations.” for “littermates.”

The subject of data set [4] is PKC. Briefly: PKC activity (ELISA) after hypoxic seizures and in vivo AMPAR antagonist treatment. The arrangement: species or system rat. As to conditions: 6 hours post-hypoxic seizures; vs vehicle. As to the method: as §2
as §1, with “littermates. These treatment doses are the same as the treatment paradigm in which we previously observed an attenuation of long-term epileptogenic changes (Koh et al., 2004). […] Importantly, blockade of AMPAR-mediated neurotransmission is the common mechanistic feature of these three structurally unrelated compounds and may represent the potential mode of mediating alterations.” for “littermates.”

The subject of data set [5] is AMPAR-mediated sEPSCs in CA1 neurons. Description: AMPAR-mediated sEPSCs in ex vivo hippocampal slices after post-seizure treatment in vivo. Also on record: species or system rat. As to conditions: for sEPSC amplitude / sEPSC frequency: hippocampal slices prepared 1 hour after administration post hypoxic seizure, vs vehicle; for acute and subacute enhancement in AMPAR EPSCs: post-treatment during the early period after seizure induction. As to the method:
Neonatal seizures have been described to enhance the excitability of hippocampal networks as well as cause alterations in long-term network excitability (Jensen et al., 1991; Sanchez et al., 2001; Silverstein and Jensen, 2007; Cornejo et al., 2007), but their acute effects on AMPAR function have not been examined. We compared spontaneous (s) and miniature (m) AMPAR-mediated excitatory postsynaptic currents (EPSCs) in CA1 pyramidal neurons in P10 rat pup hippocampal slices removed 1 hour after hypoxia-induced seizures (hypoxic seizures) and normoxic control rat pups.
Following hypoxic seizures, NBQX, topiramate or GYKI-53773 were administered to the rat pups experiencing hypoxic seizures and hippocampal slices were prepared 1 hour after administration of AMPAR antagonists.

For data set [6] the following is noted: cited from earlier work.
Data set [7] has as its system KA-induced seizures. Description: Susceptibility to KA-induced seizures 3 days after hypoxic seizures at P10. In kind it is in vivo, rat. On the procedure: We have previously reported that enhanced hippocampal excitability observed in rat pups following hypoxia-induced seizures is reflected in the increased susceptibility to KA-induced seizures in these animals at both short (72-96 h) and long (40+ days) intervals following the initial seizures at P10 (Koh et al., 2004).

For data set [8], the system named is hypoxia-induced seizures. As to conditions: post-seizure treatment within the first 48 hours following hypoxic seizures; cited from earlier work.
Data set [9] deals with GluR2-lacking AMPARs. Briefly: Evoked EPSC recording in CA1 pyramidal neurons of hippocampal slices removed 1 hour after hypoxic seizures. In kind it is cell-based, rat. As to conditions: bath application 10 μM; slices 1 hour after in vivo seizures in P10 pup; compared to normoxic controls. As to the method: The age window around P10-12 is characterized by a relative preponderance of Ca^2+ permeable AMPARs in hippocampal and neocortical neurons resulting from a developmentally regulated decrease in GluR2 subunit expression (Sanchez et al., 2001; Durand and Zukin, 1993; Talos et al., 2006b; Kumar et al., 2002). Additionally, hypoxic seizures have been previously associated with a decrease in the expression of GluR2 mRNA and protein 48 hours following the induction of seizures (Sanchez et al., 2001). However the acute alterations in the phosphorylation and function of GluR-2 lacking AMPARs following hypoxic seizures have not been well-characterized. […] Expression of inwardly rectifying AMPAR-mediated currents can result from an increase in phosphorylation of GluR2 S880 and resultant trafficking of the GluR2 subunit out of the synaptic membrane (Chung et al., 2000; Kim et al., 2001; Seidenman et al., 2003). Indeed, GluR2 S880 phosphorylation was increased in the hippocampus of rats experiencing hypoxic seizures as compared to normoxic litter mates, maximal at 12 hours post hypoxia. This seizure-induced phosphorylation of GluR2 S880 may contribute to the subacute changes in GluR2 expression reported previously (Sanchez et al., 2001), as well as increased inward rectification of EPSPs reported above.

Data set [10] relates to neonatal seizures. As to conditions: cited from earlier work.

Entries after “also recorded” stand apart in the source; their conditions may differ.

As for `CC(=O)N1N=C(c2ccc(N)cc2)c2cc3c(cc2C[C@H]1C)OCO3` [GYKI-53773], in data set [1], the “GluR1 S845 phosphorylation” value is listed as “significantly reduced to baseline normoxia levels”, the “GluR1 S831 phosphorylation” value is on record as “significantly reduced to baseline normoxia levels” and the GluR1 subunit phosphorylation result is “blocked”. The “activity of CaMKII” value in data set [2] is on record as “reduced to near baseline levels; also recorded: blocked”. Also, the “seizure-induced PKA activation” value in data set [3] is reported as “blocked”. In addition, the “seizure-induced increase in PKC activity” value in [4] is “significantly reduced; also recorded: blocked”. In [5], the sEPSC amplitude entry was “significantly attenuated”; the sEPSC frequency entry is reported as “attenuation”; the “acute and subacute enhancement in AMPAR EPSCs” value (from here on “acute and subacute enhancement”) was “blocked”. Also, the cognitive impairment result in [6] (preliminary human studies) is “less cognitive impairment”.
With `NS(=O)(=O)c1cccc2c1c([N+](=O)[O-])cc1nc(O)c(O)nc12` [NBQX], in data set [1], the “GluR1 S845 phosphorylation” value is recorded as “significantly reduced to baseline normoxia levels”, the “GluR1 S831 phosphorylation” value is listed as “significantly reduced to baseline normoxia levels” and the GluR1 subunit phosphorylation result was “blocked”. Besides, in data set [2], the “activity of CaMKII” value is “reduced to near baseline levels; also recorded: blocked”. Further, the “seizure-induced PKA activation” value in data set [3] was “reduced significantly; also recorded: blocked”. Further, the “seizure-induced increase in PKC activity” value in data set [4] was “significantly reduced; also recorded: blocked”. In data set [5], the sEPSC amplitude entry is “significantly attenuated”; the sEPSC frequency entry was “attenuation”; the “acute and subacute enhancement” value is given as “blocked”. Moreover, in [7] (P13, 20 mg/kg i.p., compared to vehicle treated hypoxic controls), the latency to seizures entry is “significantly longer”. The maximal seizure severity entry in data set [7] (P13, 20 mg/kg i.p., compared to vehicle-treated pups with prior hypoxic seizures) is reported as “significantly lower”. For the same compound, the enhanced seizure susceptibility result in data set [7] (at P13 (72 hours post-hypoxic seizures), 20 mg/kg i.p. following hypoxic seizures, KA 2 mg/kg i.p.) is given as “significantly attenuated; also recorded: reversal”. In data set [8], the “long-term increase in susceptibility to seizures” value is reported as “prevents” and the seizure-induced neuronal injury entry is “prevents”.
Regarding `CCCC(=O)N[C@@H](Cc1ccc(O)cc1)C(=O)NCCCCNCCCNCCCN` [PhTX-433], the “eEPSCs in CA1 pyramidal neurons post-hypoxia” value in [9] is recorded as “blocked the majority of eEPSCs”.
With `O=C1NC(=O)C(c2ccccc2)(c2ccccc2)N1` [phenyloin], the “infants with neonatal seizures in whom efficacy for acute seizure suppression is lacking” value in data set [10] (first line therapy) is around 50%. Moreover, the “effect on long-term outcome” value in data set [10] (infants with neonatal seizures) is on record as “no effect”.
Consider `CC1(C)O[C@@H]2[C@@H](CO[C@@]3(COS(N)(=O)=O)OC(C)(C)O[C@@H]23)O1` [topiramate], for which, in data set [1], the “GluR1 S845 phosphorylation” value is “significantly reduced to baseline normoxia levels”, the “GluR1 S831 phosphorylation” value is recorded as “significantly reduced to baseline normoxia levels” and the GluR1 subunit phosphorylation entry is “blocked”. Further, the “activity of CaMKII” value in data set [2] is on record as “reduced to near baseline levels; also recorded: blocked”. Also, the “seizure-induced PKA activation” value in data set [3] is “reduced significantly; also recorded: blocked”. The “seizure-induced increase in PKC activity” value in data set [4] is listed as “blocked”. In [5], the sEPSC amplitude result is listed as “significantly attenuated”; the sEPSC frequency result is “attenuation”; the “acute and subacute enhancement” value is recorded as “blocked”. Moreover, in data set [8], the “long-term increase in susceptibility to seizures” value is “prevents” and the seizure-induced neuronal injury result is “prevents”. Also, in data set [6] (healthy volunteers and patients with epilepsy), the “threshold for memory impairment” value was “lower than lamotrigine and valproate”.
